# Test results taken from ChEMBL document CHEMBL1201862, “PubChem BioAssay data set” (2004).
# Activity calls are given as the source filed them.
# Key:
# CAAX prenyl protease 2 [1] = target: T1, CAAX prenyl protease 2 (Homo sapiens, UniProt Q9Y256); experiment: human Rce1 protease inhibitors, dose response, biochemical, yeast membranes, quenched-peptide fluorescence, cherry-pick (AID 588849)
# T1 sequence (Q9Y256 whole entry): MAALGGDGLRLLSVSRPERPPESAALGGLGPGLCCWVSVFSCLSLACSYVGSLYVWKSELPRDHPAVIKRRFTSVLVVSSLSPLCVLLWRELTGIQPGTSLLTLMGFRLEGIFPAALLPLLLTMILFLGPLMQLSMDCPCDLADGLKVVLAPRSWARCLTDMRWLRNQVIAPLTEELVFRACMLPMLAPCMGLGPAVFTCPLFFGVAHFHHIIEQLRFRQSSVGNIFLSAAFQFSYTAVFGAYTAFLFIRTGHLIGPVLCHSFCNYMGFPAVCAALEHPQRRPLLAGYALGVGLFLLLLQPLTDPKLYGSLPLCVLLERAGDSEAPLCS
# [2] = target: Glyceraldehyde-3-phosphate dehydrogenase (Homo sapiens, UniProt P04406)
# Sequence of Glyceraldehyde-3-phosphate dehydrogenase (P04406 whole entry): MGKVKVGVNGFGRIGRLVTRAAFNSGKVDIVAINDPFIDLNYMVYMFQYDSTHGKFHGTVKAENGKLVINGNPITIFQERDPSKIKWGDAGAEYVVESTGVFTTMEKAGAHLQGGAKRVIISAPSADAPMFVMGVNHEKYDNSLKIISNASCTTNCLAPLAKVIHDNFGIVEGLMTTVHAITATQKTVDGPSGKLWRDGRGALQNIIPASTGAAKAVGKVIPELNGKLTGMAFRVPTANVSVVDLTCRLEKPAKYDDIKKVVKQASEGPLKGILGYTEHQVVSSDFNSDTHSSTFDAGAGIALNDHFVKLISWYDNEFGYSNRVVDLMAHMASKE
# [3] = target: Alkaline phosphatase, placental type (Homo sapiens, UniProt P05187); experiment: PLAP enzyme inhibitors, confirmation, biochemical, luminescence (AID 1512); format: functional
# Sequence of Alkaline phosphatase, placental type (P05187 whole entry): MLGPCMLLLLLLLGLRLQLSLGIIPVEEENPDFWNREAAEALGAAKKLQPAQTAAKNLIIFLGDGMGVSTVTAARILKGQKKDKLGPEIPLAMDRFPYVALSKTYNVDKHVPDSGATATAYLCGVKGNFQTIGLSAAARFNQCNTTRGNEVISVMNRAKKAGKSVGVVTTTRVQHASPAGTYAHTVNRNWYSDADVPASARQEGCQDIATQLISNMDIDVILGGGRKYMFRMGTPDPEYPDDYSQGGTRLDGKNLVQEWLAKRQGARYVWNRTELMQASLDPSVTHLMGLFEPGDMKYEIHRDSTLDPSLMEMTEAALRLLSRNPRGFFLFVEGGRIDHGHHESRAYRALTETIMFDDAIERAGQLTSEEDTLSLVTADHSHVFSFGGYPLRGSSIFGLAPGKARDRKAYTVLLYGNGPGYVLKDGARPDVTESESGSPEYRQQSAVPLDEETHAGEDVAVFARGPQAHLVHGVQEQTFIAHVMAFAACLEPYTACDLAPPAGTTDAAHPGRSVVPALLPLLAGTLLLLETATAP
# [4] = target: T2, Alkaline phosphatase, tissue-nonspecific isozyme (Homo sapiens, UniProt P05186); experiment: human TNAP enzyme inhibitors, SAR follow-up, biochemical, luminescent, dose response (AID 1056)
# T2 sequence (P05186 whole entry): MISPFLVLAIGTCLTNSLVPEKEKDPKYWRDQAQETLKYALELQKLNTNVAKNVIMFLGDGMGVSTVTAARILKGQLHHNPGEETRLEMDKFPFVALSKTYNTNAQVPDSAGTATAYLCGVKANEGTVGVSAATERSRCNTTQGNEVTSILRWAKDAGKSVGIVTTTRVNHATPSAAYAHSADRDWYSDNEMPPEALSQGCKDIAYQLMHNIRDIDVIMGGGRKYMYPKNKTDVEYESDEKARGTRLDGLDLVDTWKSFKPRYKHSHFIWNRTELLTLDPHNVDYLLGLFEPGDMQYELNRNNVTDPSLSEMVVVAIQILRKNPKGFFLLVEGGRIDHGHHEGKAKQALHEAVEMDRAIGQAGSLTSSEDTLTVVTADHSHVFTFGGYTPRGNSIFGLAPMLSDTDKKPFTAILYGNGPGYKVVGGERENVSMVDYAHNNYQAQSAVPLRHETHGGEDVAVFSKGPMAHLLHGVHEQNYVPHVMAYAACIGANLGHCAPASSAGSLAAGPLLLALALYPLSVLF
# Bcl-2-related protein A1 = target: T3, Bcl-2-related protein A1 (Mus musculus, UniProt Q07440); format: functional;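 note: confirmatory dose–response counterscreen on Bfl-1, used to check hits from a UBC13 polyubiquitin inhibitor campaign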
# T3 sequence (Q07440 whole entry): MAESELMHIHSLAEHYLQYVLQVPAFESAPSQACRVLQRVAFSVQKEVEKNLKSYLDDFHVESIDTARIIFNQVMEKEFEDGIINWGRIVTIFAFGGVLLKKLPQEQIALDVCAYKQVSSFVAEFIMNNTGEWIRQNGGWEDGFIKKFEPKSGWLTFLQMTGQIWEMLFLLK
# [5] = target: T4, Ubiquitin-conjugating enzyme E2 N (Homo sapiens, UniProt P61088); format: functional
# T4 sequence (P61088 whole entry): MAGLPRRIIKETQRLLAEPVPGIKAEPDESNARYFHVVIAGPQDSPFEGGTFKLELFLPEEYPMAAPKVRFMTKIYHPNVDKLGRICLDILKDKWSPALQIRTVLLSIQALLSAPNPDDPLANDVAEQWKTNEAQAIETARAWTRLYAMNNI
# [6] = target: T4, Ubiquitin-conjugating enzyme E2 N; format: functional; remark: listed apart in the source
# [7] = target: G-protein coupled receptor 35 (Homo sapiens, UniProt Q9HC97); experiment: GPR35 antagonists blocking zaprinast-driven arrestin recruitment, primary screen, imaging, U2OS, beta-arrestin-GFP, zaprinast agonist (AID 2058); format: functional;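 note: antagonist potency meaning inhibition of agonist-induced arrestin redistribution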
# Sequence of G-protein coupled receptor 35 (Q9HC97 whole entry): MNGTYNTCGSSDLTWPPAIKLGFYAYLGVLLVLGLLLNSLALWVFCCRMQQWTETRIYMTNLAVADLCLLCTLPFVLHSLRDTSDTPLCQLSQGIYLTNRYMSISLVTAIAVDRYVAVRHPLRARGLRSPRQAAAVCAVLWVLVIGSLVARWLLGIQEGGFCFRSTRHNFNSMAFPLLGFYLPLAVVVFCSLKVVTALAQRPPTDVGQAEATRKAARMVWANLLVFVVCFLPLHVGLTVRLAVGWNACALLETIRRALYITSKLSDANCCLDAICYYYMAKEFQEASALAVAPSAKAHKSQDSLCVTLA
# [8] = system: Streptococcus sp. 'group A'; experiment: growth inhibition of control SK(-) GAS strain, dose response, counter-screen for streptokinase expression inhibitor project, luminescence, kanamycin, BacTiterGlo, confirmation (AID 1900); format: functional, organism-based
# Streptokinase A = target: T5, Streptokinase A (Streptococcus pyogenes serotype M1, UniProt P10520); experiment: S. pyogenes streptokinase expression inhibitors, potency, dose response, plasminogen activation absorbance, OD405 (AID 1914); format: functional, Streptococcus pyogenes M1 GAS;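 note: secreted streptokinase activity via plasminogen activation per viability signal from cell pellet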
# T5 sequence (P10520 whole entry): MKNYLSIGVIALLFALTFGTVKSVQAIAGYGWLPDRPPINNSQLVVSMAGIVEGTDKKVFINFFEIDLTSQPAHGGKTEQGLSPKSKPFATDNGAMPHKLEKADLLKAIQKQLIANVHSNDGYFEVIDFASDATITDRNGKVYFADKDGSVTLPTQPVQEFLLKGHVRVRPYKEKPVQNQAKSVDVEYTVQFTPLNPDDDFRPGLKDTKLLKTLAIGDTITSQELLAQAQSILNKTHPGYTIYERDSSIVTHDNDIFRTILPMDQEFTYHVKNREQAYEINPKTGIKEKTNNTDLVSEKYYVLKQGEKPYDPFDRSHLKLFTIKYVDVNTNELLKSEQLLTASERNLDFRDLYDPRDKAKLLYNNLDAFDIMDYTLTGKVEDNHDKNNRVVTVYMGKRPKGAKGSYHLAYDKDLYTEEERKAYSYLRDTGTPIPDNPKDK
# Large T antigen = Large T antigen (Simian virus 40, UniProt P03070); format: functional, Betapolyomavirus macacae;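 note: Confirmatory-stage PubChem screen for compounds that inhibit SV40 T antigen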
# Sequence of Large T antigen (P03070 whole entry): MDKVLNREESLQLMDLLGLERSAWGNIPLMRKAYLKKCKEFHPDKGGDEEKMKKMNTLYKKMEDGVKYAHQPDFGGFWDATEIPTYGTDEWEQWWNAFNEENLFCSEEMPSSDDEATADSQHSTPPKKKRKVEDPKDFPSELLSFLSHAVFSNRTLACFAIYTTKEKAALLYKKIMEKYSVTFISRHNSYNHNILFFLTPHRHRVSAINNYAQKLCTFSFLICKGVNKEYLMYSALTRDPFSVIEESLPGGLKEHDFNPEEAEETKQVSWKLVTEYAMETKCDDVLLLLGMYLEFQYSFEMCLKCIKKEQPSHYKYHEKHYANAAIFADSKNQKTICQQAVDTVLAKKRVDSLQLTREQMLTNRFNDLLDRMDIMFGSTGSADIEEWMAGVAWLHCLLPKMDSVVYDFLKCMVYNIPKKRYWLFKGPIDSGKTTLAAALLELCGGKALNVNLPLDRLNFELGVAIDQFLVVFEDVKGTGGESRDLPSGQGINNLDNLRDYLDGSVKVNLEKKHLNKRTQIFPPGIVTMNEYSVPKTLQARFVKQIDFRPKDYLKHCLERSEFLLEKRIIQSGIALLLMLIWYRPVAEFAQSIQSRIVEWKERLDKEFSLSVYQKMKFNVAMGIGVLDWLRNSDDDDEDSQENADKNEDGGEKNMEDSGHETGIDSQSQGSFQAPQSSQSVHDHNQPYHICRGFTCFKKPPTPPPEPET
# [9] = target: T6, Bifunctional protein GlmU (Mycobacterium tuberculosis, UniProt P9WMN3); experiment: Inhibitors of Mycobacterial Glucosamine-1-phosphate acetyl transferase (GlmU). Secondary screen.; design: species or system Mycobacterium tuberculosis H37Rv
# T6 sequence (P9WMN3 whole entry): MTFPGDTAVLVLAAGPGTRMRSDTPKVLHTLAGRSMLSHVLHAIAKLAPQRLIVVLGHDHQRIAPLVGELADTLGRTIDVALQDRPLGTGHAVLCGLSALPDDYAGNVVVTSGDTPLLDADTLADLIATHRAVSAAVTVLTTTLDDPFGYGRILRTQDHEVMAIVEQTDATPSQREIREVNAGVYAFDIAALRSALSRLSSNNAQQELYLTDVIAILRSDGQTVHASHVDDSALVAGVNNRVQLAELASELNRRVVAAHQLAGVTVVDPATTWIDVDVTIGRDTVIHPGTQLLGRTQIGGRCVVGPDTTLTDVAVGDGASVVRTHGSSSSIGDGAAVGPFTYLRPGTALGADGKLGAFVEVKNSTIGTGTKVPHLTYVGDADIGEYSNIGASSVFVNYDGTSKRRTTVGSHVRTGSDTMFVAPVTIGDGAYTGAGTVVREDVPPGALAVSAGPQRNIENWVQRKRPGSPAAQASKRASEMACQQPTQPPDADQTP
# [10] = target: Induced myeloid leukemia cell differentiation protein Mcl-1 (Homo sapiens, UniProt Q07820); format: functional
# Sequence of Induced myeloid leukemia cell differentiation protein Mcl-1 (Q07820 whole entry): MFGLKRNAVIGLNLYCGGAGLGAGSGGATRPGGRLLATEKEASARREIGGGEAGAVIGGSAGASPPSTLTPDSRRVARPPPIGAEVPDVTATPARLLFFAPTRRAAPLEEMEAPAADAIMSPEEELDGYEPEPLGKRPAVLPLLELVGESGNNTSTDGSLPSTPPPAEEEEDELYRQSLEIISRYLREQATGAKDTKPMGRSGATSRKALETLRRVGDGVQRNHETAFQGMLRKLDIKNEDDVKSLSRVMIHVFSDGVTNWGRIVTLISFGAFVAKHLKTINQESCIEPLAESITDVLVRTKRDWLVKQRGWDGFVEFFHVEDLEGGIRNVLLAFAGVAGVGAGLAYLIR
# Streptococcus = experiment: Group A Streptococcus viability loss, dose response, counter-screen for streptokinase expression inhibitor project, luminescence, BacTiterGlo (AID 1915); format: functional, organism-based;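 note: potency for reduction of bacterial viability or growth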
# [11] = target: Dual specificity tyrosine-phosphorylation-regulated kinase 1A (Rattus norvegicus, UniProt Q63470); format: biochemical, Homo sapiens
# [12] = target: 26S proteasome non-ATPase regulatory subunit 14 (Homo sapiens, UniProt O00487); experiment: inhibition of proteasome subunit RPN11 – biochemical, fluorescence polarization, uHTS hits, confirmation (AID 602368); format: functional
# Sequence of 26S proteasome non-ATPase regulatory subunit 14 (O00487 whole entry): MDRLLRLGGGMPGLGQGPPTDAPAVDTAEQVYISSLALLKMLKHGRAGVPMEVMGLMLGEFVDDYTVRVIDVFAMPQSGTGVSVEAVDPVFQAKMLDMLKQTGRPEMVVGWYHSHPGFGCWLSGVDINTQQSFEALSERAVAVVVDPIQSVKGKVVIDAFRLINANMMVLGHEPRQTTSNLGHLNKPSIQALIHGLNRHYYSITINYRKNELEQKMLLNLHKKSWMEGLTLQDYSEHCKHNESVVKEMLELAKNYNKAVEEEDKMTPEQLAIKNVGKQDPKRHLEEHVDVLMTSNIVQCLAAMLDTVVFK
# [13] = target: 72 kDa type IV collagenase (Homo sapiens, UniProt P08253); experiment: Dose Response validation of uHTS RPN11 inhibitor hits using a MMP-2 Fluorescence assay.; format: functional
# Sequence of 72 kDa type IV collagenase (P08253 whole entry): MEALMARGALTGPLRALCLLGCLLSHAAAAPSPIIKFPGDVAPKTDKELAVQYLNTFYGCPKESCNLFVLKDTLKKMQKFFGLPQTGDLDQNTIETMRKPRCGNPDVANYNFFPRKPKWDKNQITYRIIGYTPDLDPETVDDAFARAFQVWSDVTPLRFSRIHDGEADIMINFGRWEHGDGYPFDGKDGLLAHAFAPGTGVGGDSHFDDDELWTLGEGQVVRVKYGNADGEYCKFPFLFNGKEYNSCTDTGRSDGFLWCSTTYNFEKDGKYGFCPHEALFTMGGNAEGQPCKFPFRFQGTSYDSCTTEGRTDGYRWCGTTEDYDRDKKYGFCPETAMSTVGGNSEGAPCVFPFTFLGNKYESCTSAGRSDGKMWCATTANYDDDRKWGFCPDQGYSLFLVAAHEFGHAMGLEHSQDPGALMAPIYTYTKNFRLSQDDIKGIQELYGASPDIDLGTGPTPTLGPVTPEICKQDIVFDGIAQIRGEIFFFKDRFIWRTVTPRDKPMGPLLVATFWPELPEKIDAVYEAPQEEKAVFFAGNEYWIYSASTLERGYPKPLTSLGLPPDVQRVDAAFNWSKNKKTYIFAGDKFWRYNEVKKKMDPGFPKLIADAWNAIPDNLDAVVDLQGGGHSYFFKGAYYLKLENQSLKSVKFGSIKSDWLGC
# Prothrombin = Prothrombin (Bos taurus, UniProt P00735); experiment: thrombin inhibition, dose response, biochemical, fluorescence polarization, uHTS hits (AID 602369); format: functional
# CAAX prenyl protease 2 [14] = target: T7, CAAX prenyl protease 2 (Saccharomyces cerevisiae S288c, UniProt Q03530); format: biochemical
# T7 sequence (Q03530 whole entry): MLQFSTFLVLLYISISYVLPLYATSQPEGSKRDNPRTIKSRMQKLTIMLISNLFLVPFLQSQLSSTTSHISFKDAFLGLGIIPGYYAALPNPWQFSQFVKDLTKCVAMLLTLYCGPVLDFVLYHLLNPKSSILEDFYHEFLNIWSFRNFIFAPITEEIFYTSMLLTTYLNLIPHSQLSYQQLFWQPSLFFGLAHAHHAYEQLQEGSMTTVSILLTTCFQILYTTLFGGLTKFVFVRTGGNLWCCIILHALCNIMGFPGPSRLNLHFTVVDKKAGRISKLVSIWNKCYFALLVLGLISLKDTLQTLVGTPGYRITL
# [15] = inhibitors of Vif binding to APOBEC3G peptide, primary screen, biochemical, TR-FRET, GST-Vif 1-94, biotin-A3G peptide, dose response retest (AID 1117319); format: functional;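 note: TR-FRET signal of purified GST-Vif binding a biotinylated A3G peptide; inhibitors lower the FRET signal by blocking Vif and A3G binding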
# [16] = Vero cell cytotoxicity, dose response, cytotoxicity control for Vif-APOBEC3G degradation inhibitor project, Vero cells (AID 1117358); format: functional; conditions: Human immunodeficiency virus 1, Vero
compound,measurement,setting,value
CCSc1nc(O)c2c(n1)N=C1CC(C)(C)CC(O)=C1C2c1ccccn1 (stereo unspecified),AC50,CAAX prenyl protease 2 [1],9.79 µM (active)
COc1ccc(Cc2nc3c4cnn(C)c4ncn3n2)cc1,IC50,[2],> 100 µM (not active)
same,IC50,[3],> 100 µM (inactive)
same,IC50,[4],> 100 µM (inactive)
O=C1C(Cc2cnc[nH]2)NC(=S)N1c1ccccc1 (stereo unspecified),IC50,Bcl-2-related protein A1,> 20 µM (inactive)
same,IC50,[5],8.14 µM (active)
same,IC50,[6],4 µM (active)
Cc1cc(SCC(=O)NC(=O)c2cccn2C)nc2ccccc12,IC50,Bcl-2-related protein A1,> 20 µM (inactive)
same,IC50,[5],17.4 µM (active)
same,IC50,[6],> 20 µM (inactive)
N=C1/C(=C\c2ccc(-c3cccc(C(=O)O)c3)o2)C(=O)N=C2SC=C(c3ccccc3)N12,IC50,[7],2.29 µM (active)
same,EC50,[8],0.743 µM (active)
same,EC50,Streptokinase A,> 150 µM (not active)
same,IC50,Large T antigen,92.2 µM (active)
same,IC50,[9],129 µM (active)
same,IC50,[10],1.55 µM (active)
same,EC50,Streptococcus,8.79 µM (active)
same,AC50,[11],2.19 µM (active)
same,IC50,[12],7.84 µM (active)
same,IC50,[13],9.07 µM (active)
same,IC50,Prothrombin,15.8 µM (active)
Cc1ccc(C)c(S(=O)(=O)c2c[nH]c(=S)[nH]c2=O)c1,IC50,Bcl-2-related protein A1,> 20 µM (inactive)
same,IC50,[5],14.3 µM (active)
same,IC50,[6],> 20 µM (inactive)
CC(=O)Oc1ccc(C(=O)Nc2ccc(S(=O)(=O)NCC3CCCO3)cc2)cc1 (stereo unspecified),AC50,CAAX prenyl protease 2 [14],68.7 µM (active)
CCn1nc(C)c(/C=N/NC(=O)c2ccc3c(c2)c(C)c(C)n3Cc2ccccc2)c1C,IC50,[3],> 100 µM (inactive)
CC(C)c1c(C(=O)N/N=C/c2ccsc2)nnn1-c1nonc1N,AC50,CAAX prenyl protease 2 [14],0.343 µM (active)
COc1ccc(OC)c(S(=O)(=O)Nc2cnc3ccccc3c2)c1,IC50,[2],> 100 µM (not active)
same,IC50,[3],> 100 µM (inactive)
same,IC50,[15],> 100 µM (active)
same,CC50,[16],> 40 µM (active)
